Blank lines part the entries; values can stand above or below the compound they belong to.
Columns and labels:
adjuvant arthritis [1] = assay: Anti-arthritic activity, adjuvant arthritis in Lewis rats; format: in vivo; settings: for Arthritic score / Increase in paw volume compared to vehicle or untreated rats: 100 and 25 mg/kg daily
[2] = CO release from aldehyde prodrug compounds in TBHP plus rpmi solution; settings: for CO release / Rate of CO release: 1.5 ml rpmi + 0.5 ml TBHP, 37° C.
[3] = CO release from aldehydes in different media (TBHP, H2O2, rpmi, pH 2), gas chromatograph; settings: for CO release in rpmi: RPMI media with 10% fetal calf serum; for CO release in rpmi / Media in which CO release was observed / CO release in H2O2 solution / CO release in TBHP solution: 37° C.; for Effect of radical trap 2,6-di-tert-butylphenol on CO release in acidic aqueous solution: acidic aqueous solution plus radical trap; for CO release in pH 2 (acidic aqueous) solution: aqueous solution pH 2-2.5, 37° C.; for Media in which CO release was observed: tested in TBHP, H2O2, rpmi and pH 2 solutions; for CO release in H2O2 solution: hydrogen peroxide solution, 35% in water; for CO release in TBHP solution: TBHP solution in excess, aldehyde about 0.11-0.17 M
adjuvant arthritis [4] = assay: Anti-arthritic activity, adjuvant arthritis in Sprague-Dawley rats; format: in vivo; settings: 100 mg/kg/day intraperitoneal for 20 days from day 10
Procedure: Adjuvant arthritis was induced in outbred Sprague-Dawley rats by intradermal injection into the subplantar area of the right hind paw of 0.1 ml of a 10 mg/ml suspension of Mycobacterium butyricum, killed and dried in Freund's incomplete adjuvant. Treatment was initiated 10 days after disease induction at the time of disease onset. Groups of 7 rats received intraperitoneal injections of compound 1 and compound 2 in 1 ml PBS, each at a dose of 100 mg/kg/day for 20 days. A control group of 7 rats received no treatment. Progression of arthritis was monitored by daily measurements of right and left paw volumes by a water displacement method using a plethysmometer, by daily measurements of the ankle circumference with a flexible strip, and by determination of the arthritic index based on levels of erythema and oedema of the entire paws and digits, number of joints involved, spondylosis, lesions on the tail, movement capacity and infections. The maximum possible score was 11.

[5] = 25 mg/kg daily injections for 30 days from day 10
[6] = 100 mg/kg daily injections for 30 days from day 10
[7] = listed as 4-ethyl-4-formyl-hexanenitrile

Structure (SMILES): C[C@@H]1C[C@H]2[C@@H]3CCC4=CC(=O)C=C[C@]4(C)[C@@]3(F)[C@@H](O)C[C@]2(C)[C@@]1(O)C(=O)CO [dexamethasone, reference compound]
Increase in body weight by day 40 (adjuvant arthritis [1]; dexamethasone 0.3 mg/kg daily for 30 days from day 10): 25.7%

Structure (SMILES): CC1C(c2ccccc2)OC(C(C)(C)C)N1C (stereo not shown)
CO release [2]: No hydrolysis → No CO

Structure (SMILES): CC(C)(C)C=O [compound 1, trimethylacetaldehyde]
Body weight after disease onset (adjuvant arthritis [4]): No loss of body weight was observed
Paw circumference (right and left) (adjuvant arthritis [4]): prevented the increase
Paw volume (right and left) (adjuvant arthritis [4]): prevented the increase
Dependence of CO release on TBHP concentration ([3]; 0.23 M aldehyde, varying TBHP, up to 32 eq.): increased with the concentration of TBHP until approximately eight equivalents of TBHP was reached
CO release at higher and lower aldehyde concentrations relative to maximum ([3]; 0.25 M and 0.08 M aldehyde in TBHP): decreased approximately to half
Aldehyde concentration giving maximum CO release ([3]; 1.9 M TBHP): around 0.12 M
CO release in rpmi [3]: No CO was detected
CO release at TBHP concentration of inflamed tissues ([3]; TBHP 1 mM): CO release still was observed
CO release in TBHP solution [3]: released CO
Effect of radical trap 2,6-di-tert-butylphenol on CO release in TBHP solution ([3]; TBHP solution plus radical trap): inhibited
Effect of radical trap 2,6-di-tert-butylphenol on CO release in acidic aqueous solution [3]: inhibited
CO release in pH 2 (acidic aqueous) solution [3]: very little
CO release in H2O2 solution [3]: No CO was detected
Increase in body weight by day 40 (adjuvant arthritis [1]; [5]): 38.7%
Increase in body weight by day 40 (adjuvant arthritis [1]; [6]): 40%
Arthritic score (adjuvant arthritis [1]): only slightly influenced
Increase in paw volume compared to vehicle or untreated rats (adjuvant arthritis [1]): reduced the increase in paw volume

Structure (SMILES): CC(C)(C)C1Nc2ccccc2CO1 (stereo not shown)
CO release [2]: No hydrolysis → No CO

Structure (SMILES): CC(C)(C)C=NNC(=O)c1ccccc1
CO release [2]: No hydrolysis → No CO

Structure (SMILES): COC(=O)C1COC(C(C)(C)C)N1 (stereo not shown)
CO release after 6 hours ([2]; TBHP plus rpmi): 0%
CO release after 24 hours ([2]; TBHP plus rpmi): 4.2%

Structure (SMILES): C=CCC(C)(C)C=O [compound 2, 2,2-dimethyl-4-pentenal]
Body weight after disease onset (adjuvant arthritis [4]): No loss of body weight was observed
Paw circumference (right and left) (adjuvant arthritis [4]): prevented the increase
Paw volume (right and left) (adjuvant arthritis [4]): prevented the increase
CO release in rpmi [3]: decarbonylation in rpmi observed
CO release in rpmi ([3]; listed as 2,2-dimethyl-4-pentenal): even less
CO release in TBHP solution [3]: released CO
CO release in pH 2 (acidic aqueous) solution [3]: very little
CO release in H2O2 solution [3]: No CO release was observed

Structure (SMILES): CC(C)(C)C=Nc1ccc(C(=O)O)c(O)c1
CO release [2]: Stable, but instaneous hydro- lysis was observed when dissolved in water

Structure (SMILES): CC(C)(C)/C=N/NC(=O)Nc1ccccc1
CO release [2]: No hydrolysis → No CO

Structure (SMILES): CCC(C=O)(CC)CCC#N [compound 3, 4-ethyl-4-formyl-hexanenitrile]
CO release in rpmi [3]: decarbonylation in rpmi observed
CO release in rpmi [3, 7]: even less
CO release in TBHP solution [3]: released a very high amount of CO
Effect of radical trap 2,6-di-tert-butylphenol on CO release in acidic aqueous solution [3]: inhibited the decarbonylation process
CO release in pH 2 (acidic aqueous) solution [3]: decarbonylated significantly
CO release in pH 2 (acidic aqueous) solution [3, 7]: less
CO release in H2O2 solution [3]: No CO release was observed

More lines, main results first:

CO release [2]: released CO
Rate of CO release [2]: fast within the first 6 hours
CO release after 5 hours ([2]; TBHP plus rpmi, 5 hours): 17%
CO release after 6 hours ([2]; TBHP plus rpmi): around 16%
CO release after 23 hours ([2]; TBHP plus rpmi, 23 hours): 21%
CO release after one day ([2]; TBHP plus rpmi): 20%
Structure (SMILES): CC(C)(C)C1NC(C(=O)O)CS1 (racemic) [compound 9, 2-tert-butylthiazolidine-4-carboxylic acid]

CO release in rpmi [3]: decarbonylation in rpmi observed
Effect of radical trap 2,6-di-tert-butylphenol on CO release in acidic aqueous solution [3]: inhibited the decarbonylation process
CO release in pH 2 (acidic aqueous) solution [3]: decarbonylated significantly
Structure (SMILES): Cc1ccc(CC(C)(C)C=O)cc1 [compound 6, 2,2-dimethyl-3-(p-methylphenyl)propanal]
Media in which CO release was observed [3]: released CO in all media tested except H2O2 solution

Effect of radical trap 2,6-di-tert-butylphenol on CO release in acidic aqueous solution [3]: inhibited the decarbonylation process
CO release in pH 2 (acidic aqueous) solution [3]: decarbonylated significantly
Structure (SMILES): CC(C)(C=O)c1ccccc1 [compound 7, 2-methyl-2-phenylpropionaldehyde]
CO release in H2O2 solution [3]: responded significantly to decarbonylation
Media in which CO release was observed [3]: released CO in all media tested except rpmi solution
Increase in body weight by day 40 (adjuvant arthritis [1]; [5]): 28.6%
Days with significant inhibition of arthritic score relative to vehicle treated rats (adjuvant arthritis [1]; 100 mg/kg): 14 days
Reduction in paw volume compared with dexamethasone (adjuvant arthritis [1]; 100 mg/kg): comparable to that seen in rats treated with dexamethasone
Increase in body weight by day 40 (adjuvant arthritis [1]; [6]): 31.6%
Arthritic score (adjuvant arthritis [1]): only slightly influenced
Increase in paw volume compared to vehicle or untreated rats (adjuvant arthritis [1]): reduced the increase in paw volume

CO release [2]: released CO
Rate of CO release [2]: very slow
CO release after 6 hours ([2]; TBHP plus rpmi): 0.3%
CO release after 25 hours ([2]; TBHP plus rpmi): 10.3%
CO release after one day ([2]; TBHP plus rpmi): about 10%
Structure (SMILES): COC(=O)C1CSC(C(C)(C)C)N1 (racemic) [compound 10]

CO release [2]: released CO
Rate of CO release [2]: initially very slowly
CO release after 6 hours ([2]; TBHP plus rpmi): 3%
CO release after 24 hours ([2]; TBHP plus rpmi): 25%
CO release after one day ([2]; TBHP plus rpmi): about 25%
Structure (SMILES): CC(C)(C)C1NCCS1 (racemic) [compound 11, 2-tert-butyl-thiazolidine]

Media in which CO release was observed [3]: released CO only in TBHP solution
Structure (SMILES): CC(C)(C=O)CO [compound 4, 3-hydroxy-2,2-dimethylpropanal]
Time course of CO release in TBHP solution ([3]; TBHP solution, 0.12 M): initially the CO release was small, but within one day, it reached high levels

CO release [2]: lower than its 5-membered ring analogue
CO release after 6 hours ([2]; TBHP plus rpmi): 7.7%
CO release after 25 hours ([2]; TBHP plus rpmi): 15.8%
CO release after one day ([2]; TBHP plus rpmi): about 16%
Structure (SMILES): CC(C)(C)C1NC(C(=O)O)CCS1 (racemic) [compound 12, 2-tert-butyl-[1,3]thiazinane-4-carboxylic acid]

Reference: patent publication US7968605B2, “Methods for treating inflammatory disease by administering aldehydes and derivatives thereof” (ALFAMA—Investigação e Desenvolvimento de Produtos …, priority 2002, dated 2011)
